Read-outs that look alike come from different tables or passages of the source. Peptide text beside a SMILES is read from it.
Tests used:
[1] = system: B-16; assay: Apoptosis induction by various stimuli (acridine orange/ethidium bromide staining); assay type: cell-based, mouse
Method: (§1) Cells were plated at a density of 5.4×10^4 cells/cm^2 in 24-well plates, washed once with PBS and placed in serum-free medium. Cells were then incubated with or without RuR or Ru360. Cells were also treated with […] staurosporine (STS) to induce apoptosis and analyzed for viability 3, 5 and 7 hrs after STS addition. Treatments with curcumin (120 μM) or As2O3 (20 μM) were carried out for 48 hrs.
(§2) To determine cell viability, cells were stained with 100 μg/ml acridine orange (AcOr) and 100 μg/ml ethidium bromide (EtBr) in PBS. Cells were centrifuged at 1500×g for 5 min at room temperature and resuspended in 25 μl of complete medium, to which 2 μl of AcOr/EtBr solution were added. The cells were then visualized by fluorescence microscopy (Olympus IX51) and images were recorded on an Olympus DP70 camera, using a SWB filter.
(§3) Cells were incubated with curcumin (120 μM) or As2O3 (20 μM) for 48 hrs, or with STS (1.25 μM) for 7 hrs. Cell viability was analyzed by acridine orange/ethidium Bromide staining. In each independent experiment, approximately 250 cells were counted for each treatment, in which early and late apoptotic cells were also counted. The data shown in table 3 is the mean±S.E.M. (n=3).

[2] = system: Du-145; assay: as above; assay type: cell-based, human
Method: as §1, §2, §3

[3] = system: Panc; assay: as above; assay type: cell-based, human
Method: as §1, §2, §3

[4] = system: HeLa; assay: as above; assay type: cell-based, human
Method: as §1, §2, §3

[5] = system: PBMCs isolated from CLL patients; assay type: cell-based, human
Method: Peripheral blood mononuclear cells (PBMCs) were isolated from venous blood of patients with chronic lymphocytic leukemia (CLL) by Ficoll-Paque PLUS (GE Healthcare, Israel) density gradient centrifugation. After informed consent, venous blood (10 ml) was drawn from CLL patients satisfying diagnostic criteria for CLL or from normal adult donors. Blood was collected into heparin tubes and diluted 1:1 with balance solution (composed of two stock solutions, A and B, in 1:9 ratio, respectively. Solution A contained: D-glucose 1%, CaCl2 5×10^−5M, MgCl2 9.8×10^−4M, KCl 5.4×10^−3M, Tris 0.145M, pH 7.6. Solution B contained NaCl 0.14M. The balance solution was prepared freshly every week. The diluted blood sample was subsequently carefully layered on Ficoll-Paque Plus (10 ml of diluted blood: 15 ml Ficoll) in 50 ml conical tubes. Tubes were centrifuged at 400×g (with minimal acceleration and deceleration) for 40 minutes at 18-20° C. The mononuclear cells fine layer was transferred to a new centrifuge tube. Cells were washed 3 times with balance solution and re-suspended in a culture medium appropriate to the application.
(§4) PBMCs (2×10^6 cells/sample) from CLL patients and healthy donors were treated with various concentrations of the peptide Antp-LP4-trp for 90 minutes. Cells were then gently washed once with PBS and stained with propidium iodide (PI) by adding 2.5 μl (1 mg/ml) and immediately analyzed for cell death. The level of cell death, reflected by the percentage of PI-positive cells, was determined by a flow cytometry analysis.
(§5) Preipheral blood mononuclear cells (PMBC) isolated from pateints having chronic lymphocytic leukemia (CLL) and MEC-1 cell lines (human chronic B-cell leukemia) were incubated for 90 min with Peptide N-ANTP (SEQ ID NO:73) at concentrations of 10-40 μM. Cell death was measured by PI staning and FACS analysis.
In ex vivo experiments, peripheral blood mononuclear cells (PBMCs) isolated from healthy individuals or CLL patients were incubated for 90 min with the indicated concentration of the ANTP-LP4-trp peptide. Cell death was assayed by PI staining and FACS analysis (healthy donors, n=34; CLL donors, n=39).

[6] = system: MEC-1 cell line; assay type: cell-based, human
Method: as §4, §5

[7] = system: U937 cells; assay: HK-I over-expression protection against apoptotic cell death in double-transfected cells; assay type: cell-based, human; conditions: U937 or T-Rex 293 cells stably over-expressing HK-I, mVDAC1-GFP constructs
Method: U937 cells were transfected with pcDNA3.1-HisA or pcDNA3.1-HisA-HK-I (neomycin resistance; provided by Dr. J. E. Wilson, University of Michigan) by electroporation, and grown in complete RPMI 1640 with neomycin ([…]). After 12 days, the selected cells were transfected with pEGFP, pEGFP-mVDAC1 or pEGFP-E72Q-mVDAC1 and were grown in the presence of neomycin ([…]). The viability of double-transfected cells was analyzed during 48 to 76 hr.
The effect of HK-I over-expression on apoptotic cell death of the GFP-tagged version of native and E72Q-mVDAC1 over-expressing cells was examined.
Since VDAC1 overexpression induces cell death, U937 cells (FIG. 4A, 4B) or T-Rex™ 293 human embryonic kidney cells (FIG. 4B) were first transformed to stably over-express HK-I and then transfected with native, E65Q, E72Q, K73L, D77N, N75A, or G67A mutated mVDAC1-GFP. […] This β-loop includes amino acid residues T64 to about N78.

[8] = system: U937 cells; assay: Apoptotic cell death of U937 cells transfected with native or mutated mVDAC1, with/without RuR (acridine orange/ethidium bromide staining); assay type: cell-based, human
Method: Logarithmically-growing U937 cells were resuspended in RPMI 1640 supplemented with 10% FCS, 100 U/ml penicillin and […] streptomycin at a concentration of 2.5×10^7 cells/ml. Cells were transfected to express rat or murine VDAC1 using the vectors pEGFP, pEGFP-VDAC1, pEGFP-E72Q-mVDAC1, pE-mVDAC1 or pE-E72Q-mVDAC1. Transfection of the U937 cells was performed by electroporation with a single pulse from a Bio-Rad micropulser II with a capacitance extender unit (200 V, […]). Cells were incubated on ice for 10 min before and after transfection, and then resuspended in 20 ml of RPMI 1640 supplemented with 10% FCS, 1 mM l-glutamine, 100 U/ml penicillin and […] streptomycin. […] GFP-positive cells were viewed under a microscope using a blue filter.
as §1
Fifty six (56) hr after transfection, cells were exposed for 20 hr to RuR (1 μM) and cell viability was analyzed using acridine orange/ethidium bromide staining. In each independent experiment, approximately 250 cells were counted for each including early and late apoptotic cells. Data shown in FIG. 5 and Table 2 are the mean±SEM (n=3).

Molecule: O=[As]O[As]=O (centres unmarked) [As2O3]
- Apoptotic cell death, % of control ([1]; As2O3 20 μM, 48 hrs): 15.0 ± 1.99 % of control
- Apoptotic cell death, % of control ([2]; As2O3 20 μM, 48 hrs): 6.0 ± 0.80 % of control
- Apoptotic cell death, % of control ([3]; As2O3 20 μM, 48 hrs): 67.20 ± 3.87 % of control
- Apoptotic cell death, % of control ([4]; As2O3 20 μM, 48 hrs): 24.67 ± 2.65 % of control

Molecule: COc1cc(/C=C/C(=O)CC(=O)/C=C/c2ccc(O)c(OC)c2)ccc1O [Curcumin, curcumin]
- Apoptotic cell death, % of control ([1]; curcumin 120 μM, 48 hrs): 37.47 ± 2.20 % of control
- Apoptotic cell death, % of control ([2]; curcumin 120 μM, 48 hrs): 8.93 ± 0.47 % of control
- Apoptotic cell death, % of control ([3]; curcumin 120 μM, 48 hrs): 70.77 ± 4.31 % of control
- Apoptotic cell death, % of control ([4]; curcumin 120 μM, 48 hrs): 36.2 ± 0.70 % of control

Molecule: CN[C@@H]1C[C@H]2O[C@@](C)([C@@H]1OC)n1c3ccccc3c3c4c(c5c6ccccc6n2c5c31)C(=O)NC4 [STS, staurosporine]
- Apoptotic cell death, % of control ([1]; STS 1.25 μM, 7 hrs): 63.12 ± 0.71 % of control
- Apoptotic cell death, % of control ([2]; STS 1.25 μM, 7 hrs): 13.57 ± 4.73 % of control
- Apoptotic cell death, % of control ([3]; STS 1.25 μM, 7 hrs): 84.90 ± 2.06 % of control
- Apoptotic cell death, % of control ([4]; STS 1.25 μM, 7 hrs): 72.37 ± 1.30 % of control

Molecule: CC(C)C[C@H](NC(=O)[C@H](CC(N)=O)NC(=O)[C@@H](NC(=O)[C@H](C)NC(=O)[C@@H](NC(=O)[C@H](CCC(=O)O)NC(=O)[C@H](CC(C)C)NC(=O)[C@H](CCCCN)NC(=O)[C@H](CCCCN)NC(=O)[C@H](CCC(=O)O)NC(=O)[C@H](Cc1c[nH]c2ccccc12)NC(=O)[C@@H](NC(=O)[C@H](Cc1c[nH]c2ccccc12)NC(=O)[C@H](CO)NC(=O)CNC(=O)CNC(=O)[C@H](CCCNC(=N)N)NC(=O)[C@H](CCCNC(=N)N)NC(=O)[C@H](CCCNC(=N)N)NC(=O)[C@H](CCC(N)=O)NC(=O)[C@H](CCCNC(=N)N)NC(=O)[C@H](CCCNC(=N)N)NC(=O)[C@H](CCCCN)NC(=O)[C@H](CCCCN)NC(=O)[C@@H](N)CCCNC(=N)N)[C@@H](C)O)[C@@H](C)O)C(C)C)C(=O)N[C@@H](C)C(=O)N[C@@H](Cc1c[nH]c2ccccc12)C(=O)N[C@H](C(=O)N[C@@H](C)C(=O)NCC(=O)N[C@@H](CC(N)=O)C(=O)N[C@@H](CO)C(=O)N[C@@H](CC(N)=O)C(=O)N[C@@H](CCCCN)C(=O)N[C@@H](Cc1c[nH]c2ccccc12)C(=O)N[C@H](C(=O)N[C@@H](Cc1c[nH]c2ccccc12)C(=O)N[C@@H](CCCCN)C(=O)O)[C@@H](C)O)[C@@H](C)O [TAT-LP4-trp] (H-RKKRRQRRRGGSWTWEKKLETAVNLAWTAGNSNKWTWK-OH; N-terminus and C-terminus assumed)
- IC50 ([5]; peptide concentration required to induce apoptosis in 50% of the cells, PBMC from CLL patients, read-out: IC50 μM CLL): 3.5 to 4 µM
- IC50 ([6]; peptide concentration required to induce apoptosis in 50% of the cells, MEC-1, read-out: IC50 μM MEC-1): 6 to 7 µM

Molecule: CC[C@H](C)[C@H](NC(=O)[C@H](C)NC(=O)[C@@H](N)Cc1c[nH]cn1)C(=O)N[C@@H](Cc1ccc(O)cc1)C(=O)N1CCC[C@H]1C(=O)N[C@@H](CCCNC(=N)N)C(=O)N[C@@H](Cc1c[nH]cn1)C(=O)N[C@@H](CO)C(=O)N[C@@H](Cc1c[nH]c2ccccc12)C(=O)N[C@H](C(=O)N[C@@H](Cc1c[nH]c2ccccc12)C(=O)N[C@@H](CCC(=O)O)C(=O)N[C@@H](CCCCN)C(=O)N[C@@H](CCCCN)C(=O)N[C@@H](CC(C)C)C(=O)N[C@@H](CCC(=O)O)C(=O)N[C@H](C(=O)N[C@@H](C)C(=O)N[C@H](C(=O)N[C@@H](CC(N)=O)C(=O)N[C@@H](CC(C)C)C(=O)N[C@@H](C)C(=O)N[C@@H](Cc1c[nH]c2ccccc12)C(=O)N[C@H](C(=O)N[C@@H](C)C(=O)NCC(=O)N[C@@H](CC(N)=O)C(=O)N[C@@H](CO)C(=O)N[C@@H](CC(N)=O)C(=O)N[C@@H](CCCCN)C(=O)N[C@@H](Cc1c[nH]c2ccccc12)C(=O)N[C@H](C(=O)N[C@@H](Cc1c[nH]c2ccccc12)C(=O)N[C@@H](CCCCN)C(=O)O)[C@@H](C)O)[C@@H](C)O)C(C)C)[C@@H](C)O)[C@@H](C)O [Tf-LP4-trp]
- IC50 [5]: 1.5 to 2 µM
- IC50 [6]: 2.4 to 3 µM

Molecule: D77N-mVDAC1: VDAC1 polypeptide variant D77N [Peptide D77N-mVDAC1]
- protective effect of HK-I over-expression against cell death induced by mVDAC1 over-expression [7]: no protective effect

Molecule: E65Q-mVDAC1: VDAC1 polypeptide variant E65Q [Peptide E65Q-mVDAC1]
- protective effect of HK-I over-expression against cell death induced by mVDAC1 over-expression [7]: no protective effect

Molecule: E72Q-mVDAC1: VDAC1 polypeptide variant E72Q [Peptide E72Q-mVDAC1]
- protective effect of HK-I over-expression against cell death induced by mVDAC1 over-expression [7]: no protective effect

Molecule: E72Q-mVDAC-GFP: GFP-tagged E72Q mVDAC1 variant
- % of protection ([8]; protection by RuR (1 μM) against apoptosis of transfected U937 cells): 0%
- Apoptotic cells, % −RuR ([8]; transfected U937 cells, without RuR, mean±SEM (n=3)): 71.9 ± 4.7%
- Apoptotic cells, % +RuR ([8]; transfected U937 cells, 56 hr after transfection exposed 20 hr to RuR (1 μM), mean±SEM (n=3)): 71.6 ± 4.4%

Molecule: E202Q-mVDAC1: VDAC1 polypeptide variant E202Q [Peptide E202Q-mVDAC1]
- protective effect of HK-I over-expression against cell death induced by mVDAC1 over-expression [7]: no protective effect

Molecule: G67A-mVDAC1: VDAC1 polypeptide variant G67A [Peptide G67A-mVDAC1]
- protective effect of HK-I over-expression against cell death induced by mVDAC1 over-expression [7]: dramatically reduced

Molecule: K73L-mVDAC1: VDAC1 polypeptide variant K73L [Peptide K73L-mVDAC1]
- protective effect of HK-I over-expression against cell death induced by mVDAC1 over-expression [7]: no protective effect

Molecule: N75A-mVDAC1: VDAC1 polypeptide variant N75A [Peptide N75A-mVDAC1]
- protective effect of HK-I over-expression against cell death induced by mVDAC1 over-expression [7]: dramatically reduced

Source: patent US8648045B2, “VDAC1 compositions and methods of use thereof for regulating apoptosis” (Ben Gurion University of the Negev Research and Development …, priority 2005, dated 2014)
